Measured values reported in patent US20100029675A1, “Pyrimidine-2, 4-diamine JAK2 Kinase inhibiting anti-inflammation use” (priority 2008, published 2010).

Legend:
[1] = system: JAK2-dependent phosphorylation of STAT3 (phospho-Y705) in AGS gastric cancer cell line; assay: Western blot of STAT3 phosphorylation in AGS cells; assay type: cell-based; details: 24 hours, 5-10 uM, densitometry
Method: (§1) In order to detect specific inhibition of JAK2 enzyme in cell culture, Western blot assays may also be performed. For this, cells which have been treated with a potential JAK2 inhibitor are lysed with a buffer specific for the isolation and preservation of proteins (1% Nonidet P-40, 120 mM NaCl, 30 mM Tris pH 7.4, 1:100 Protease Inhibitor Cocktail III [Calbiochem/EMD Biosciences], 1:100 Phosphatase Inhibitor Cocktail 1 [Sigma-Aldrich, Saint Louis, Mo.], 1:100 Phosphatase Inhibitor Cocktail 2 [Sigma-Aldrich, Saint Louis, Mo.]). The protein concentration in these lysates is then quantified using the BCA Protein Assay Kit (Pierce). Known amounts of protein, e.g. 50 ug, are loaded onto 10% SDS-polyacrylamide gels and are subjected to reducing, denaturing SDS-PAGE. […]
(§2) In this example, Compound 1-4 is shown to reduce the JAK2-dependent phosphorylation of STAT3 and STAT5 in the AGS gastric cancer cell line. […] Following incubation, cells were lysed and total protein isolated and quantified. […] Densitometry analysis was performed in order to quantify the amount of STAT3 and STAT5 phosphorylation in these treated cells. Phospho-STAT3 and phospho-STAT5 were compared to total STAT3 and STAT5 and the proportion of STAT phosphorylation relative to untreated controls was determined.

[2] = system: JAK2-dependent phosphorylation of STAT5 (phospho-Y694) in AGS gastric cancer cell line; assay: Western blot of STAT5 phosphorylation in AGS cells; assay type: cell-based; details: 24 hours, 5-10 uM, densitometry
Method: as §1, §2

CN1CCN(c2ccc(Nc3nccc(Nc4ccc(F)c(Cl)c4)n3)cc2)CC1 [Compound 1-4, N4-(3-chloro-4-fluorophenyl)-N2-(4-(4-methylpiperazin-1-yl)phenyl)pyrimidine-2,4-diamine]
STAT3 phosphorylation relative to untreated controls [1]: reduce | STAT5 phosphorylation relative to untreated controls [2]: reduce
